# In publication PMC7395176, “Retromer stabilization results in neuroprotection in a model of Amyotrophic Lateral Sclerosis” (Nature Communications, 2020):
# How the values were obtained:
# [1] = tested on: SOD1^G93A-transfected Neuro2a cells; experiment: LDH-Glo cytotoxicity assay in SOD1G93A-transfected Neuro2a cells; type: cell-based; conditions: 10 µM
# Text: Having observed a marked improvement of viability in SOD1^G93A-transfected Neuro2a cells with VPS35 gain of function, we investigated the effect of VPS35 loss of function. We transfected Neuro2a cells with RNAi plasmids encoding a siRNA duplex for VPS35, to knockdown VPS35 and disrupt the retromer assembly. […] By including Sh56 plasmids in the transfection mix, we worsened this phenotype (Fig. 3d). […] We next assayed cytotoxicity by measuring lactate dehydrogenase (LDH) release with a LDH-Glo™ cytotoxicity assay. Cells were treated with plasmids encoding SOD1^G93A and the Sh56-RNAi sequence with or without compound 2a, while supernatants were used to measure LDH contents. Overexpression of SOD1^G93A increased LDH release by Neuro2aA cells, when compared with control cells (Fig. 3e).
# LDH cytotoxicity was run on 96-well plates using LDH-Glo™ Cytotoxicity Assay (Promega). Briefly, Neuro2a cells were transfected with plasmids encoding pCMV-LacZ; pcDNA3.1(+)SOD1G93A[77] with or without VPS35 short interfering plasmids (Sh56) or compound 2a (10 µM). […] In each experiment we calculated %cytotoxicity=Exp.LDHrelease−mediumbackground/MaxLDHreleasecontrol−mediumbackground , and we run parallel positive controls treating cells with 200 µM H2O2. […]
# G93A mice = experiment: Daily treatment of G93A and WT mice, day 30 to day 100: tolerability, rotarod, histopathology; type: in vivo
# Method: We administered compound 2a (10 mg/kg, i.p.) daily to G93A and WT littermates between day 30 and day 100. […] We next assessed the pathological degeneration of fibers in sciatic nerves of G93A mice treated with compound 2a. We observed axonal degeneration, with a substantial reduction of myelinated nerve fibers in vehicle-treated G93A mice (Fig. 5a, b)[39]. […] Using Luxol Fast Blue (LFB) to label lipoproteins of the myelin sheath, we analyzed myelination.
# Mice were maintained under pathogen-free conditions at San Raffaele Hospital mouse facility (Milan, Italy). All efforts were made to minimize animal suffering and to reduce the number of mice used in accordance with the European Communities Council Directive of 24 November 1986 (86/609/EEC). The Ethics Review Committee approved experimental protocols according guidelines from the Italian Ministry of Health and from the Institutional Animal Care and Use Committee of the San Raffaele Scientific Institute (protocol number 704/2015PR). Transgenic mutant SOD1 mice carrying the SOD1^G93A allele (strain B6SJL-TgN[SOD1G93A]1GUR)[75] were purchased from Jackson laboratories, while C57BL/6J mice, used for breeding and experimental purposes, were purchased from Charles River (Italy). Both transgenic and WT mice had food and water freely available in the home-cage. The holding room was on a 12-h light–dark cycle, the temperature of the room was 22 ± 0.2 °C. Starting from day 30 we intraperitoneally injected compound 2a (10 mg/Kg) or vehicle in G93A mice as well as in C57BL/6J mice for 70 days. Additional experiments were performed injecting mice from day 83 to day 103. An operator blind to the treatment performed injections and manipulation of mice. At the day of the sacrifice, mice received an overdose of anesthetic drugs and they were perfused via vascular system with saline followed by 70–80 ml 4% paraformaldehyde (PF) in PBS, pH 7.2 (Sigma–Aldrich). Spinal cords were coronally sliced at ~6-mm thickness and postfixed in 4% PF in PBS, pH 7.2 for 12 h at +4 °C. Tissues were cryoprotected in PBS 1X/30% Sucrose (Sigma–Aldrich), embedded in OCT inclusion media and stored at −80 °C before processing. Lumbar spinal cords were 12-µm sectioned, labelled and digital images were acquired every 330 µm in a region encompassing 2.4 mm of the lumbar spinal cord. We determined numbers of mice by preliminary results or literature precedent.
# Motor activity of mice receiving compound 2a or vehicle was assessed on 50-, 60-, 70-, 80-, 90-, and 100-days-old animals. Briefly, mice were trained 1 min on a static rotor and 1 min at constant speed (4 rpm) for two times and then we ran two trials performed over two consecutive days (one per day). Each trial consisted of 6-test sessions with 15 min interval between sessions. For each session, we placed mice on an accelerating rotor (4–40 rpm) and the latency to fall was recorded, with a maximum limit for individual animal set at 600 seconds.
# Quantification of nerves degeneration was done on sciatic nerves obtained from saline-perfused mice. Tissues were fixed in 2% buffered glutaraldehyde (Sigma–Aldrich), postfixed in 1% osmium tetroxide and cut to obtain 1 µm thick sections. We stained sections with toluidine blue and specimens were blindly examined by light microscopy using ×40 objective. For each nerve, we merged images to obtain the entire nerve cross section. Five consecutive nonoverlapping semi-thin sections from each sample were analyzed with NHI-Image J software (US National Institutes of Health). Degenerating fibers were counted in the entire nerve cross section.
# Quantification of myelin was done on sagittal sciatic nerves by Luxol fast blue (LFB). Briefly, nerve sections were incubated the ethanol series before receiving 0.1% LFB overnight at 60 °C. Sections were then incubated 5 min in 0.05% lithium carbonate before receiving the ethanol series and xylene. Bright field microcopy of nerves at ×63 was used for quantification. […]
structure (smiles),measurement,setting,value
"NC(N)=N/N=C/c1cccc(/C=N/N=C(N)N)c1 [compound 2a, phenyl-1,3-bis-guanylhydrazone]",LDH release,[1]; Neuro2a transfected with SOD1G93A and Sh56 plasmids,high LDH release was observed
same,LDH release,"[1]; SOD1G93A-transfected Neuro2a, 48 h",significantly reduced LDH release
same,distress or pain,"G93A mice; 10 mg/kg i.p. daily, day 30 to day 100",did not observe distress or undesirable pain
same,"progression of motor deficits (latency to fall, rotarod)","G93A mice; G93A mice, 10 mg/kg i.p. daily, day 30 to day 100",significantly slowed down
same,reduction of degenerating fibers in sciatic nerves,"G93A mice; G93A mice, 10 mg/kg, day 100",~30%
same,MNs in ventral horns of lumbar SCs,"G93A mice; G93A mice, 10 mg/kg, day 100, versus vehicle-treated G93A mice",more MNs
same,total number of Iba1+ cells,"G93A mice; SC ventral horn, G93A mice, 10 mg/kg, day 100, versus vehicle",Neither CD14 levels nor the total number of Iba1^+ cells changed
same,body weight,"G93A mice; WT and G93A mice, 10 mg/kg i.p. daily, day 30 to day 100","slight, but not significant reduction of body weight"
same,locomotion performances,"G93A mice; WT mice, 10 mg/kg i.p. daily, rotarod",did not observe alterations of locomotion performances
same,CD14 levels,"G93A mice; lumbar SCs, G93A mice, 10 mg/kg, day 100, versus vehicle",Neither CD14 levels nor the total number of Iba1^+ cells changed
same,"integrity of myelin (MBP, NF-M labelling)","G93A mice; sciatic nerves, G93A mice",preserved the integrity of myelin
same,demyelination (Luxol Fast Blue),"G93A mice; sciatic nerves, G93A mice, versus vehicle-treated G93A mice",substantial reduction of demyelination
